From ChEMBL document CHEMBL3045448, “Enantioselective effects of optically active alpha-methylbenzyl-s-triazine on the root growth of rice and Echinochloa plants and their herbicidal activity” (Biosci Biotechnol Biochem, 2002)
Active and inactive are the calls of the source. The rule behind the calls is not given here.

Legend:
Echinochloa oryzicola [1] = experiment: Herbicidal activity against Echinochloa oryzicola seedlings assessed as appearance of leaf burn symptom after 3 weeks by paddy pot test under green house conditions; type: functional, organism-based
[2] = test system: Echinochloa crus-galli var. formosensis; experiment: Phytotoxicity in germinated seedlings of Echinochloa crus-galli var. formosensis (barnyard millet) assessed as root growth inhibition at 30 uM after 3 to 4 days; type: organism-based; settings: in vivo
Oryza sativa = experiment: Phytotoxicity in germinated seedlings of Oryza sativa (rice) assessed as root growth inhibition at 30 uM after 3 to 4 days; type: organism-based; settings: in vivo
Echinochloa oryzicola [3] = experiment: Herbicidal activity against sprouting stage of Echinochloa oryzicola seedlings assessed as growth inhibition after 3 weeks by paddy pot test under green house conditions; type: functional, organism-based
Echinochloa oryzicola [4] = experiment: Herbicidal activity against Echinochloa oryzicola seedlings measured per 10 acres after 3 weeks by paddy pot test under green house conditions; type: functional

SMILES	growth inhibition (GI) (Oryza sativa)	growth inhibition (GI) (Echinochloa oryzicola [3])	further results
CCNc1nc(Cl)nc(NC(C)C)n1	–	–	Activity (Echinochloa oryzicola [1]): Active
CCCN(CCC)c1nc(Cl)nc(N[C@H](C)c2ccccc2)n1	Toxic	–	growth inhibition (GI) [2]: Toxic
CCNc1nc(Cl)nc(NC(C)c2ccccc2)n1 (configuration not stated)	–	Active	Activity (Echinochloa oryzicola [1]): Active
CCNc1nc(Cl)nc(N[C@@H](C)c2ccccc2)n1	Toxic	–	Activity (Echinochloa oryzicola [1]): Active
CCCN(C)c1nc(Cl)nc(N[C@H](C)c2ccccc2)n1	Toxic	–	–
CCCNc1nc(Cl)nc(N[C@H](C)c2ccccc2)n1	Toxic	–	–
CCN(CC)c1nc(Cl)nc(N[C@H](C)c2ccccc2)n1	–	Active	Activity (Echinochloa oryzicola [4]): 250 g
CC[C@H](C)Nc1nc(Cl)nc(N[C@H](C)c2ccccc2)n1	Toxic	–	–
CNc1nc(Cl)nc(N[C@@H](C)c2ccccc2)n1	Toxic	–	–
CCN(CC)c1nc(Cl)nc(NC(C)c2ccccc2)n1 (configuration not stated)	–	Active	–
CCNc1nc(Cl)nc(N[C@H](C)c2ccccc2)n1	–	Active	Activity (Echinochloa oryzicola [1]): Active
C[C@@H](Nc1nc(Cl)nc(NC(C)(C)C)n1)c1ccccc1	–	–	growth inhibition (GI) [2]: Toxic
CCCCNc1nc(Cl)nc(N[C@H](C)c2ccccc2)n1	Toxic	–	–
CCCN(CC)c1nc(Cl)nc(N[C@H](C)c2ccccc2)n1	–	–	growth inhibition (GI) [2]: Toxic
CCN(CC)c1nc(Cl)nc(N[C@@H](C)c2ccccc2)n1	–	Active	–
CCC(CC)Nc1nc(Cl)nc(N[C@H](C)c2ccccc2)n1	Toxic	–	growth inhibition (GI) [2]: Toxic
